We go through four compounds from US9956240B2, “Therapeutic monosaccharide-based inhibitors of hexokinase and glucokinase for parasitic diseases, along with methods of their formation and use” (University of South Carolina, priority 2014, dated 2018).

The term Ki denotes the equilibrium dissociation constant of an inhibitor or competing ligand from its target. Broadly, the IC50 is the concentration that gives 50% inhibition. High values mean a need for much substance, low ones inhibition by little substance.

Read-outs that look alike come from different tables or passages of the source.

The target of assay [1] is T1, T. cruzi glucokinase (TcGlcK) (Trypanosoma cruzi, UniProt Q4E4E1).
T1 construct: precedes the start methionine and the 9-residue segment VGKKQKAQL at the C-terminal region was not included; made in house; host or cells: E. coli BL21(DE3)
T1 sequence (Q4E4E1 entry or part of it): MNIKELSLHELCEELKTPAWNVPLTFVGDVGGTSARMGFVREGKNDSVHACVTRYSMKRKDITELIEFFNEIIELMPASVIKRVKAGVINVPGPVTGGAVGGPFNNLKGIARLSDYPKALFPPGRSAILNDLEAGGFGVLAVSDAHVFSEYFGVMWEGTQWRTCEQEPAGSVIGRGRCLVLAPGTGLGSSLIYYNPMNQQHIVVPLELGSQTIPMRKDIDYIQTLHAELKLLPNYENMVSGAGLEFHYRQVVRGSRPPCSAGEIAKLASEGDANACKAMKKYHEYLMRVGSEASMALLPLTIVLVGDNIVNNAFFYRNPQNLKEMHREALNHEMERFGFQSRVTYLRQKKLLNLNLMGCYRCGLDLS
Briefly: Two-enzyme coupled colorimetric glucokinase activity assay (G6PDH/NADPH), TcGlcK. Conditions: for Glucokinase selectivity ratio = Ki (HsGlcK)/Ki (TcGlcK): higher values indicate better selectivity toward TcGlcK. The class given is biochemical. The procedure: (§1) Enzymatic activity of glucokinase from T. cruzi and H. sapiens were both performed using a similar protocol but had minor modifications. In general, a two-enzyme coupled colorimetric assay was performed, as previously described (4). The assay is based on the formation of NADPH (λmax≈340 nm; ϵ340=6,220 M^−1 cm^−1) (5). In the 1st step of the assay, glucokinase/hexokinase in the presence of Mg^2+, ATP, and D-glucose react to form glucose-6-phosphate (G-6-P) and ADP. In the 2nd step, glucose-6-phosphate dehydrogenase (G6PDH) in the presence of the formed G-6-P and NADP^+ react to form 6-phosphogluconolactone and NADPH. All measurements were performed in triplicate at 22° C.
TcGlcK assays used purified enzyme (0.12 μM for the monomer (0.0051 mg/mL)) that was used in the reaction mixtures, which were carried out with S. cerevisiae G6PDH (0.0064 mg/mL) in an assay buffer [50 mM triethanolamine (pH 7.6), 7.95 mM MgCl2, 0.55 mM ATP, 0.55 mM NADP^+] contained substrate ([D-glucose] ranged from 0.2-15.0 mM) and inhibitor ([BENZ-GlcN] ranged from 0-20 μM; [CBZ-GlcN] ranged from 0-10 μM; [HPOP-GlcN] ranged from 0-10 μM; and [DBT-GlcN] ranged from 0-20 μM). Reactions were performed at room temperature (22° C.) and were terminated after 120 sec (optimal time) using 90 μL of 1.5 M EDTA (pH 8.0). The EDTA solution was prepared from the tetrasodium salt. For quantification of NADPH, UV-visible spectrophotometric absorbance readings were recorded at 338 nm (λ) with an Agilent 8453 UV-visible spectrophotometer exactly 1 min after solutions were treated with the EDTA solution. Concentration of NADPH was determined through Beer's Law using the molar absorptivity of 6,220 M^−1 cm^−1.

Assay [2] concerns the target T2, Homo sapiens glucokinase (hexokinase IV) (HsGlcK) (Homo sapiens, UniProt P35557).
T2 construct: precedes residue K12 (N-terminal segment M1-A11 of HsGlcK was not included); made in house; host or cells: E. coli BL21(DE3)
T2 sequence (P35557 12-457 limits assumed): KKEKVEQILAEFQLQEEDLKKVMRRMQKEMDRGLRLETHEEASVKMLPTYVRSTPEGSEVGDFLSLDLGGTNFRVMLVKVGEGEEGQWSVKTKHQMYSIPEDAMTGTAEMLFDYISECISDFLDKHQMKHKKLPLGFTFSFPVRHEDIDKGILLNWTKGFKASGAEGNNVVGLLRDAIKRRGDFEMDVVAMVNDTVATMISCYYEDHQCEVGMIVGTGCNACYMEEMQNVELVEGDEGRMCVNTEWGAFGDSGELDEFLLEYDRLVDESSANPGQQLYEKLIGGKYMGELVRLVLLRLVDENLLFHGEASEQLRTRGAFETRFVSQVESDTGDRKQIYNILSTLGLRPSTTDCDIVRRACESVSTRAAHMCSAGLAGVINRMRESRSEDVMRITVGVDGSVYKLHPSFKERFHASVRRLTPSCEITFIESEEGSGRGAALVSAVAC
Description: Two-enzyme coupled colorimetric glucokinase activity assay (G6PDH/NADPH), HsGlcK. The format is biochemical. Conditions: measurements in triplicate, 22° C., substrate D-glucose, compounds tested as racemic mixtures (n ≥ 2), read-out: Ki versus substrate, HsGlcK. The procedure:
as §1
HsGlcK assays were performed at room temperature and used the same protocol implemented for TcGlcK (see above) except that the reactions were terminated after 600 sec (optimum time) with 90 μL of 1.5 M EDTA (pH 8.0) and the reaction mixtures had slight modification. Briefly, DTT, which reduces disulfide bonds was added to the stock solution aliquot of HsGlcK on the day of the experiment (e.g. 1.0 μL of 20 mM DTT was mixed with 99.0 μL of 1.0 mg/mL HsGlcK) and was allowed to pre-equilibrate at 4° C. for 30 min prior to running assay reactions. Purified HsGlcK (0.15 μM for the monomer or 0.0077 mg/mL) and S. cerevisiae G6PDH (0.0064 mg/mL) in an assay buffer [50 mM triethanolamine (pH 7.6), 7.95 mM MgCl2, 5.0 mM ATP, 0.55 mM […], 1.0% (v/v) DMSO, 1.0 mM DTT, 5.0 mM KCl] contained substrate ([D-glucose] ranged from 5.0-50.0 mM) and inhibitor ([BENZ-GlcN] ranged from 0-500 μM; [CBZ-GlcN] ranged from 0-500 μM; and [HPOP-GlcN] ranged from 0-500 μM). DBT-GlcN was not used in the inhibition enzymatic assays because this compound absorbs light at the wavelength of NADPH (338 nm) at the concentrations needed for any reasonable inhibition of HsGlcK.

The test system of assay [3] is T. cruzi (Tulahuen strain) intracellular amastigote parasite cells. Briefly: T. cruzi in-vitro growth inhibition assay, amastigotes co-cultured in NIH/3T3 fibroblasts. The format is cell-based. The conditions noted are these: Trypanosoma cruzi, NIH3T3, co-cultured within NIH/3T3 fibroblast cells, triplicate. The procedure: T. cruzi (Tulahuen strain) intracellular amastigote parasite cells co-cultured within NIH/3T3 mammalian fibroblast cells were tested for in-vitro growth inhibition from each of Samples 1-4. […] Samples 1, 3, and 4 had IC50 values>40 μM. The methods used for producing cultures of T. cruzi cells and mammalian cells in addition to the methods of performing T. cruzi in-vitro inhibition assays were previously described by Andriani and colleagues (20). All biological experimentation was carried out at the Anti-Infectives Screening Core Service Center at New York University School of Medicine, Department of Microbiology.

Setting [4] is: colorimetric assay, measurements in triplicate, 22° C., substrate D-glucose, compounds tested as racemic mixtures (n ≥ 2), read-out: Ki versus substrate, TcGlcK.

As to `O=C(CCc1ccc(O)cc1)N[C@H]1C(O)O[C@H](CO)[C@@H](O)[C@@H]1O` (mixture of isomers) [HPOP-GlcN, 2-[[3-(4-hydroxyphenyl)-1-oxopropyl]amino]-2-deoxy-D-glucosamine], in assay [1], the affinity corresponds to a Ki of 1.3 ± 0.6 µM and the “Glucokinase selectivity ratio = Ki (HsGlcK)/Ki (TcGlcK)” value (from here on “Glucokinase selectivity ratio = Ki”) is given as 186. Also, the Ki in assay [2] was 242 ± 97 µM. For the same compound, in assay [3], the IC50 is above 40 µM.

In the case of `O=C(N[C@H]1C(O)O[C@H](CO)[C@@H](O)[C@@H]1O)OCc1ccccc1` (mixture of isomers) [CBZ-GlcN, 2-N-carboxybenzyl-2-deoxy-D-glucosamine], in assay [1], the Ki stood at 0.71 ± 0.05 µM and the “Glucokinase selectivity ratio = Ki” value is on record as 245. In addition, the Ki in assay [2] is 174 ± 50 µM. This compound showed a half-inhibitory concentration (IC50) in assay [3] above 40 µM.

Take `O=C(N[C@H]1C(O)O[C@H](CO)[C@@H](O)[C@@H]1O)c1ccccc1` (stereo partly drawn) [BENZ-GlcN, 2-benzamido-2-deoxy-D-glucopyranose]: the Ki was 32 ± 26 µM in assay [1] (setting [4]) and 376 ± 196 µM in assay [2]. Also, the “Glucokinase selectivity ratio = Ki” value in assay [1] turned out to be 12. The IC50 in assay [3] was determined as 16.08 ± 0.16 µM.

Turning to `O=C(N[C@H]1C(O)O[C@H](CO)[C@@H](O)[C@@H]1O)OCC1=Cc2ccccc2S1(=O)=O` (mixture of isomers) [DBT-GlcN, 2-[[1,1-dioxobenzo[b]thiophen-2-yl]methyloxocarbonylamino]-2-deoxy-D-glucosamine], the Ki in assay [1] (setting [4]) worked out at 4.1 ± 0.3 µM. The compound further gave an IC50 in assay [3] above 40 µM.
